Results as given in ChEMBL document CHEMBL2331474, “Development of a selective peptide macrocycle inhibitor of coagulation factor XII toward the generation of a safe antithrombotic therapy” (J Med Chem, 2013).
Numbered stars: 1 amine (or outer) side, 2 acyl side, 3 side chain; on linkers, the order of the positions; unused ones are H or OH. Bridge positions count the residues as written; N and C are the ends. Peptide text beside a SMILES is read from it. TBMB = c1c(C[*:1])cc(C[*:3])cc1C[*:2]

Legend:
Plasminogen = Plasminogen (Homo sapiens, UniProt P00747); assay: Inhibition of human plasmin using H-D-Val-Leu-Lys-AMC as substrate assessed as residual activity by fluorescence plate reader analysis
Sequence of Plasminogen (P00747 97-580 limits assumed): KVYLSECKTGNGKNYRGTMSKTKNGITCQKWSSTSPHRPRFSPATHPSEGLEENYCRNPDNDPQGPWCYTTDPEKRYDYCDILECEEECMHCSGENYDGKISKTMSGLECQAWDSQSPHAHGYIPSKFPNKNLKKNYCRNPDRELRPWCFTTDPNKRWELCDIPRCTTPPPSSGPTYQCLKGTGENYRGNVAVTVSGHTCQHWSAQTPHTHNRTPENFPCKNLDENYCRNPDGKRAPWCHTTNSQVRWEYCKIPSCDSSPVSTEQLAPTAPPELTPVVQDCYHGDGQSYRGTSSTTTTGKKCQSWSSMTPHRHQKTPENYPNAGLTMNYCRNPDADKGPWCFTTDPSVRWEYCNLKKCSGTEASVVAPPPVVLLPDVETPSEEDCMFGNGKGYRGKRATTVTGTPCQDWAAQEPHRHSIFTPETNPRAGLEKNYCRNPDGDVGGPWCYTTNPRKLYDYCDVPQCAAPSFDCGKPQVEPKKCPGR
Sequence of Plasminogen (P00747 581-810 limits assumed): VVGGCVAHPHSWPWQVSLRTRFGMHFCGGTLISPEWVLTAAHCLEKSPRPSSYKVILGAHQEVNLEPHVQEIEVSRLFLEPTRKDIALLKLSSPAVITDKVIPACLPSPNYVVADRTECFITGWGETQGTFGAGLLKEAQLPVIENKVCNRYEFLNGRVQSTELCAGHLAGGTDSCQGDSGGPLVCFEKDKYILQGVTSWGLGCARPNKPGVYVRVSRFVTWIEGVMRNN

Coagulation factor XII = molecular target: T1, Coagulation factor XII (Homo sapiens, UniProt P00748); assay: Inhibition of human biotinylated beta factor 12a expressed in Escherichia coli TG1 using Z-Gly-Gly-Arg-AMC as substrate assessed as residual activity by fluorometric analysis
T1 sequence (P00748 whole entry): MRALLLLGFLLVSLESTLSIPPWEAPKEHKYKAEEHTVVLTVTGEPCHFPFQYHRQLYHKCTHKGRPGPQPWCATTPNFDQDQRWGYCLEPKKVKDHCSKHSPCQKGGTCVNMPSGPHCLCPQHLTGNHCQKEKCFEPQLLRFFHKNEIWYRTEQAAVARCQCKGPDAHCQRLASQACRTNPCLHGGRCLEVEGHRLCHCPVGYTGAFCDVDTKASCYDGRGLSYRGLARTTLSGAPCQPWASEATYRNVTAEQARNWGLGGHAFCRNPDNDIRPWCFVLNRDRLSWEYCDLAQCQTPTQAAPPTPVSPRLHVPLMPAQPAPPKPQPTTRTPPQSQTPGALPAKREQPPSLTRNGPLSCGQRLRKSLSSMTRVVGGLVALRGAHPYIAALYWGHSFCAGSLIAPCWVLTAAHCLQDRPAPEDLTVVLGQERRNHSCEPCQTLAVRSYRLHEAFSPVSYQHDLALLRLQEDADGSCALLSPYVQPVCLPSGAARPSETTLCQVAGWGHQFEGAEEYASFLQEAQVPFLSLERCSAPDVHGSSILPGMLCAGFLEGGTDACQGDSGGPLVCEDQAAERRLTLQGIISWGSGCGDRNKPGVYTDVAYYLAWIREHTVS

Serine protease 1 = Serine protease 1 (Homo sapiens, UniProt P07477); assay: Inhibition of human trypsin using Z-Gly-Gly-Arg-AMC as substrate assessed as residual activity by fluorescence plate reader analysis
Sequence of Serine protease 1 (P07477 whole entry): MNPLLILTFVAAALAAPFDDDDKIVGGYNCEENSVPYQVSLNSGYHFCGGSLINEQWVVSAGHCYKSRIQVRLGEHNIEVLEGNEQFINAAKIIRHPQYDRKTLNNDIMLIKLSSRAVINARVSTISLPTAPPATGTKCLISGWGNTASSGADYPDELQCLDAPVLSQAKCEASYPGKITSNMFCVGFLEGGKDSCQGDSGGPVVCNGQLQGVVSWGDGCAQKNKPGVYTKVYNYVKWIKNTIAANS

Prothrombin = Prothrombin (Homo sapiens, UniProt P00734); assay: Inhibition of human thrombin using Z-Gly-Gly-Arg-AMC as substrate assessed as residual activity by fluorescence plate reader analysis
Plasma kallikrein = Plasma kallikrein (Homo sapiens, UniProt P03952); assay: Inhibition of human PK using Z-Phe-Arg-AMC as substrate assessed as residual activity by fluorometric analysis
Sequence of Plasma kallikrein (P03952 20-390 limits assumed): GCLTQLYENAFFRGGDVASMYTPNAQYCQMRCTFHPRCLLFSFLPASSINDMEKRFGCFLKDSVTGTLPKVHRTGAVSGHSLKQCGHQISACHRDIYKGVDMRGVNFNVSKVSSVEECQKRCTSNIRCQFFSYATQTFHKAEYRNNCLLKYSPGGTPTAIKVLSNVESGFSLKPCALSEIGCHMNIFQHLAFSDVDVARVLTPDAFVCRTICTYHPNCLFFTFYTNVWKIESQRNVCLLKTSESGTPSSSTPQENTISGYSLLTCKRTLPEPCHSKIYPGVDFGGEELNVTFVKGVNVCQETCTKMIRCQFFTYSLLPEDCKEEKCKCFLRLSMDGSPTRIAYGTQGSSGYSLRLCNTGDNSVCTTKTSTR
Sequence of Plasma kallikrein (P03952 391-638 limits assumed): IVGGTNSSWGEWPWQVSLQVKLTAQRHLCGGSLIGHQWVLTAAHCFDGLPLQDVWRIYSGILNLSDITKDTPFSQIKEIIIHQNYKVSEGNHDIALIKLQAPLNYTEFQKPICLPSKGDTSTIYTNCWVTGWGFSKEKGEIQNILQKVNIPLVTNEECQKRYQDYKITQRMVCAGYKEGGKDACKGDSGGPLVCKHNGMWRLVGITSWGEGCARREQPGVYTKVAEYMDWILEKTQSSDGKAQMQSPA

Coagulation factor XI = Coagulation factor XI (Homo sapiens, UniProt P03951); assay: Inhibition of human coagulation factor 11a using Boc-Phe-Ser-Arg-AMC as substrate assessed as residual activity by fluorometric analysis
Sequence of Coagulation factor XI (P03951 19-387 limits assumed): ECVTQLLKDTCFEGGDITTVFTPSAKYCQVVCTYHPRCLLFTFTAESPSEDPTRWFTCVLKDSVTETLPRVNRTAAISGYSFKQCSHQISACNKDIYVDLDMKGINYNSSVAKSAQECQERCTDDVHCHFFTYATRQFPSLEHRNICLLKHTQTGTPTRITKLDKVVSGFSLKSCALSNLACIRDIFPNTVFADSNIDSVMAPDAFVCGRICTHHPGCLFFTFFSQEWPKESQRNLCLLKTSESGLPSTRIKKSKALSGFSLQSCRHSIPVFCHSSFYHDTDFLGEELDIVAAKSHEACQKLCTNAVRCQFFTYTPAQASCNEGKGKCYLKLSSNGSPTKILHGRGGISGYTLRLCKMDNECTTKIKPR
Sequence of Coagulation factor XI (P03951 388-625 limits assumed): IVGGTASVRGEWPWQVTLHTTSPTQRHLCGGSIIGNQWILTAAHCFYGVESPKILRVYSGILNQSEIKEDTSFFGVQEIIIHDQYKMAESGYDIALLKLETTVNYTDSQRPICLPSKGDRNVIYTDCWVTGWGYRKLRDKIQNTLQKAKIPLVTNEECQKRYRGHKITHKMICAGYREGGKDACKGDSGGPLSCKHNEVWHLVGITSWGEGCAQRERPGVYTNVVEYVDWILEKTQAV

[1] = molecular target: Urokinase-type plasminogen activator (Homo sapiens, UniProt P00749); assay: Inhibition of human uPA using Z-Gly-Gly-Arg-AMC as substrate assessed as residual activity by fluorometric analysis
[2] = molecular target: Tissue-type plasminogen activator (Homo sapiens, UniProt P00750); assay: Inhibition of human tPA using Z-Gly-Gly-Arg-AMC as substrate assessed as residual activity by fluorometric analysis
Sequence of Tissue-type plasminogen activator (P00750 whole entry): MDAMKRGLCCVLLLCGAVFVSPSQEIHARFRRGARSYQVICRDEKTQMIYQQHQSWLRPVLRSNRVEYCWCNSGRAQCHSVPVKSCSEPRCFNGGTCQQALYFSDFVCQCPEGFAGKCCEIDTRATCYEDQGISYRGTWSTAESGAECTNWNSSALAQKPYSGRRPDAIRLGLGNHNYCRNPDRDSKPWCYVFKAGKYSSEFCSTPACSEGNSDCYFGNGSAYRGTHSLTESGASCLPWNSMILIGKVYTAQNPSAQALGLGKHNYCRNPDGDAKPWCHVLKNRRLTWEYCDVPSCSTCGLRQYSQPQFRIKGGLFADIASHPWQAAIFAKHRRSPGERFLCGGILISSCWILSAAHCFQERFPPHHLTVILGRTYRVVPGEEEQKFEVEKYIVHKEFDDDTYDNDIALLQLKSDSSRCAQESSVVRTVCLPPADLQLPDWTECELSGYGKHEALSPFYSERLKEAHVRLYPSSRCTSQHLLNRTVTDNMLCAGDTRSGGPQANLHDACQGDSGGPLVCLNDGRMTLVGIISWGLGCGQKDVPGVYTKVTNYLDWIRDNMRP

[3] = molecular target: T2, Coagulation factor XII (Homo sapiens) (UniProt P00748); assay: Inhibition of factor 12 in human plasma assessed as residual activity at 500 uM relative to control
T2 sequence (whole entry): T1 sequence (P00748 whole entry)

[4] = molecular target: T2, Coagulation factor XII (Homo sapiens); assay: Inhibition of factor 12 in human plasma assessed as residual activity at 200 uM relative to control
[5] = molecular target: T2, Coagulation factor XII (Homo sapiens); assay: Inhibition of factor 12 in human plasma assessed as residual activity at 100 uM relative to control
[6] = molecular target: T2, Coagulation factor XII (Homo sapiens); assay: Inhibition of factor 12 in human plasma assessed as residual activity at 50 uM relative to control
[7] = molecular target: T2, Coagulation factor XII (Homo sapiens); assay: Inhibition of factor 12 in human plasma assessed as residual activity at 20 uM relative to control
[8] = molecular target: T2, Coagulation factor XII (Homo sapiens); assay: Inhibition of factor 12 in human plasma assessed as decrease in residual activity relative to control
Plasma = assay: Inhibition of intrinsic coagulation in human plasma assessed as increase in activated partial […] time; type: functional, cell-free
[9] = molecular target: T2, Coagulation factor XII (Homo sapiens); assay: Inhibition of factor 12 in human plasma assessed as residual activity at 10 uM relative to control

| Ki (Plasminogen) [µM] | Ki (Coagulation factor XII) [µM] | SMILES | further results |
| --- | --- | --- | --- |
| > 120 | 20.5 | CC(C)C[C@H](NC(=O)[C@H](CS)NC(=O)[C@H](Cc1ccc(O)cc1)NC(=O)[C@@H](NC(=O)[C@H](CCC(N)=O)NC(=O)[C@@H]1CCCN1C(=O)[C@H](CS)NC(=O)[C@@H]1CCCN1C(=O)[C@H](CCCNC(=N)N)NC(=O)[C@H](C)NC(=O)[C@H](CC(=O)O)NC(=O)[C@H](CS)NC(=O)[C@H](C)N)[C@@H](C)O)C(=O)O (H-ACDARPCPQTYCL-OH) | – |
| > 120 | 33.5 | CC(C)C[C@H](NC(=O)[C@@H]1CCCN1C(=O)[C@H](CS)NC(=O)[C@@H]1CCCN1C(=O)[C@H](CCCN=C(N)N)NC(=O)[C@H](C)NC(=O)[C@H](C)NC(=O)[C@H](CS)NC(=O)CN)C(=O)N[C@H](C(=O)N[C@@H](C)C(=O)N[C@@H](CS)C(=O)N[C@@H](Cc1c[nH]c2ccccc12)C(=O)O)[C@@H](C)O (H-GCAARPCPLTACW-OH) | – |
| > 120 | 1.2 | C[C@@H]1NC(=O)[C@@H]2CCCN2C(=O)[C@@H]2CCCN2C(=O)[C@@H]2CSCc3cc(cc(c3)CSC[C@@H](C(=O)NCC(=O)O)NC(=O)[C@H](Cc3ccc(O)cc3)NC1=O)CSC[C@H](NC(=O)CN)C(=O)NCC(=O)NCC(=O)N[C@@H](CCCN=C(N)N)C(=O)N1CCC[C@H]1C(=O)N2 (H-GCGGRPCPPAYCG-OH; linker 2-7-12 via TBMB) | Ki (Serine protease 1): > 120 µM; Ki (Prothrombin): > 120 µM; Ki (Plasma kallikrein): > 120 µM; Ki (Coagulation factor XI): > 120 µM; Ki [1]: > 120 µM; Ki [2]: > 120 µM |
| – | – | C[C@@H]1NC(=O)[C@@H]2CCCN2C(=O)[C@@H]2CCCN2C(=O)[C@@H]2CSCc3cc(cc(c3)CSC[C@@H](C(=O)NCC(=O)O)NC(=O)[C@H](Cc3ccc(O)cc3)NC1=O)CSC[C@H](NC(=O)CN)C(=O)NCC(=O)NCC(=O)N[C@@H](CCCNC(=N)N)C(=O)N1CCC[C@H]1C(=O)N2 (H-GCGGRPCPPAYCG-OH; linker 2-7-12 via TBMB) | Activity [3]: 20%; Activity [4]: 42%; Activity [5]: 51%; Activity [6]: 70%; Activity [7]: 89%; inhibition [8]: Dose-dependent effect; inhibition (Plasma): Dose-dependent effect; Activity [9]: 95% |
| 14.2 | 11.2 | CC(C)C[C@H](NC(=O)[C@@H]1CCCN1C(=O)[C@H](CS)NC(=O)[C@@H]1CCCN1C(=O)[C@H](CCCNC(=N)N)NC(=O)CNC(=O)[C@H](Cc1cnc[nH]1)NC(=O)[C@H](CS)NC(=O)CN)C(=O)N[C@@H](CCC(N)=O)C(=O)N[C@@H](Cc1ccc(O)cc1)C(=O)N[C@@H](CS)C(=O)N[C@@H](CCCCN)C(=O)O (H-GCHGRPCPLQYCK-OH) | – |
| > 120 | 5 | CSCC[C@H](NC(=O)[C@@H]1CCCN1C(=O)[C@H](CS)NC(=O)[C@@H]1CCCN1C(=O)[C@H](CCCN=C(N)N)NC(=O)CNC(=O)[C@H](CC(C)C)NC(=O)[C@H](CS)NC(=O)CN)C(=O)N[C@@H](C)C(=O)N[C@@H](Cc1ccc(O)cc1)C(=O)N[C@@H](CS)C(=O)N[C@@H](CO)C(=O)O (H-GCLGRPCPMAYCS-OH) | – |
| > 120 | 5 | CSCC[C@H](NC(=O)[C@H](CS)NC(=O)CN)C(=O)NCC(=O)N[C@@H](CCCNC(=N)N)C(=O)N1CCC[C@H]1C(=O)N[C@@H](CS)C(=O)N1CCC[C@H]1C(=O)N[C@H](C(=O)N[C@@H](CO)C(=O)N[C@@H](Cc1ccc(O)cc1)C(=O)N[C@@H](CS)C(=O)N[C@@H](Cc1ccccc1)C(=O)O)C(C)C (H-GCMGRPCPVSYCF-OH) | – |
| > 120 | 10.2 | CC(C)C[C@H](NC(=O)[C@H](C)NC(=O)[C@H](CC(C)C)NC(=O)[C@@H]1CCCN1C(=O)[C@H](CS)NC(=O)[C@@H]1CCCN1C(=O)[C@H](CCCNC(=N)N)NC(=O)[C@H](C)NC(=O)[C@H](Cc1c[nH]c2ccccc12)NC(=O)[C@H](CS)NC(=O)CN)C(=O)N[C@@H](CS)C(=O)N[C@@H](CCC(N)=O)C(=O)O (H-GCWARPCPLALCQ-OH) | – |
| 118 | 4.7 | C[C@H](NC(=O)[C@H](CC(N)=O)NC(=O)[C@H](CS)NC(=O)[C@@H](N)CCC(N)=O)C(=O)N[C@@H](CCCNC(=N)N)C(=O)N1CCC[C@H]1C(=O)N[C@@H](CS)C(=O)N1CCC[C@H]1C(=O)N[C@@H](CO)C(=O)N[C@@H](CO)C(=O)N[C@@H](Cc1ccc(O)cc1)C(=O)N[C@@H](CS)C(=O)N[C@@H](CCCNC(=N)N)C(=O)O (H-QCNARPCPSSYCR-OH) | – |
| 4.3 | – | C[C@@H]1NC(=O)[C@@H]2CCCN2C(=O)[C@@H]2CCCN2C(=O)[C@@H]2CSCc3cc(cc(c3)CSC[C@H](NC(=O)[C@@H](N)CO)C(=O)NCC(=O)NCC(=O)N[C@@H](CCCNC(=N)N)C(=O)N3CCC[C@H]3C(=O)N2)CSC[C@@H](C(=O)NCC(N)=O)NC(=O)[C@H](Cc2ccc(O)cc2)NC1=O (H-SCGGRPCPPAYCG-NH2; linker 2-7-12 via TBMB) | – |
| 8.3 | 3.1 | C[C@H](NC(=O)[C@@H]1CCCN1C(=O)[C@@H]1CCCN1C(=O)[C@H](CS)NC(=O)[C@@H]1CCCN1C(=O)[C@H](CCCN=C(N)N)NC(=O)CNC(=O)CNC(=O)[C@H](CS)NC(=O)[C@@H](N)CO)C(=O)N[C@@H](Cc1ccc(O)cc1)C(=O)N[C@@H](CS)C(=O)N[C@@H](CCCCN)C(=O)O (H-SCGGRPCPPAYCK-OH) | – |
| 8.3 | 3.1 | C[C@@H]1NC(=O)[C@@H]2CCCN2C(=O)[C@@H]2CCCN2C(=O)[C@@H]2CSCc3cc(cc(c3)CSC[C@H](NC(=O)[C@@H](N)CO)C(=O)NCC(=O)NCC(=O)N[C@@H](CCCNC(=N)N)C(=O)N3CCC[C@H]3C(=O)N2)CSC[C@@H](C(=O)N[C@@H](CCCCN)C(=O)O)NC(=O)[C@H](Cc2ccc(O)cc2)NC1=O (H-SCGGRPCPPAYCK-OH; linker 2-7-12 via TBMB) | Ki (Serine protease 1): > 120 µM; Ki (Prothrombin): > 120 µM; Ki (Plasma kallikrein): > 120 µM; Ki (Coagulation factor XI): > 120 µM; Ki [1]: > 120 µM; Ki [2]: > 120 µM |
| – | > 75 | CC(C)C[C@H](NC(=O)[C@H](CCCNC(=N)N)NC(=O)[C@H](Cc1ccccc1)NC(=O)[C@H](C)NC(=O)[C@H](CS)NC(=O)CNC(=O)[C@H](CCC(N)=O)NC(=O)[C@@H](NC(=O)[C@@H](NC(=O)[C@H](CS)NC(=O)[C@@H](N)[C@@H](C)O)[C@@H](C)O)[C@@H](C)O)C(=O)N[C@@H](CS)C(=O)N[C@@H](CO)C(=O)O (H-TCTTQGCAFRLCS-OH) | – |
| – | > 75 | CC(C)[C@H](N)C(=O)N[C@@H](CS)C(=O)N[C@H](C(=O)N[C@@H](CCC(N)=O)C(=O)N[C@@H](CCCCN)C(=O)N[C@@H](Cc1ccccc1)C(=O)N[C@@H](CS)C(=O)N[C@@H](Cc1c[nH]c2ccccc12)C(=O)N[C@@H](CCCNC(=N)N)C(=O)NCC(=O)N[C@@H](Cc1c[nH]c2ccccc12)C(=O)N[C@@H](CS)C(=O)N1CCC[C@H]1C(=O)O)C(C)C (H-VCVQKFCWRGWCP-OH) | – |
| 3.3 | 7.8 | N=C(N)NCCC[C@H](NC(=O)CNC(=O)[C@H](CO)NC(=O)[C@H](CS)NC(=O)[C@@H](N)CO)C(=O)N[C@@H](CCCNC(=N)N)C(=O)N[C@@H](CS)C(=O)N1CCC[C@H]1C(=O)N1CCC[C@H]1C(=O)N[C@@H](CO)C(=O)N[C@@H](Cc1ccc(O)cc1)C(=O)N[C@@H](CS)C(=O)N[C@@H](CCCCN)C(=O)O [SCSGRRCPPSYCK] (H-SCSGRRCPPSYCK-OH) | – |
